Measurements: patent publication US7713969B2, “Compositions and methods for treatment of cancer” (ArQule, Inc., priority 2005, dated 2010)

Tests used:
MDA-MB-231 = assay: Cell viability MTS assay; type: cell-based, human
Protocol: (§1) Cell viability was determined by measuring the activity of dehydrogenase enzymes in metabolically active cells using a tetrazolium compound, MTS. The assay was performed as described in Promega Technical Bulletin No. 169 (CellTiter 96 Aqueous Non-Radioactive Cell Proliferation Assay). Thirteen human cancer cell lines were assayed (see, e.g., Table 1). Cells were maintained at 37° C., 5% CO2. Adherent cells were maintained DMEM media (4.5 g/L glucose) supplemented with 15% heat-inactivated FBS, 10 mM L-glutamine, and 10 mM Hepes pH 7.5. Suspension cells were maintained in RPMI 1640 media, supplemented with 10% heat-inactivated FBS and 10 mM Hepes pH 7.5. Briefly, cells were seeded in 96-well plates as set forth in Table 1 and incubated for 16-24 hours. Candidate compounds were serially diluted in DMSO, further diluted in cell culture media, and then added to cells (final DMSO concentration of 0.33%). Cells were incubated in the presence of candidate compound for 72 hours. MTS stock solution (MTS 2 gm/L, PMS […] in PBS) was added to the cells (final concentration MTS […] and PMS 7.67 mg/L) and incubated for 4 hours. SDS was added to a final concentration of 1.4% and absorbance at 490 nm was measured within two hours using a platereader. The IC50 was defined as the concentration of compound that results in a 50% reduction in the number of viable cells as compwered to control wells treated with DMSO only (0.33%) and was calculated using non-linear regression analyswas. IC50 values were given in Table 2 for the compounds listed.

HT29 = assay: Cell viability MTS assay; type: cell-based, human
Protocol: as §1

[1] = Homo sapiens, MDA-MB-231, 72 hours with compound
[2] = Homo sapiens, HT-29, 72 hours with compound

IC50 (MDA-MB-231; [1]) [µM]	IC50 (HT29; [2]) [µM]	IC50 (MDA-MB-231; 72 hours with compound) [µM]	IC50 (HT29; 72 hours with compound) [µM]	Structure (SMILES)
54.5	48.7			O=C1NC(=O)[C@@H](c2cn3c4c(cccc24)CCC3)[C@@H]1c1ccc(Cl)cc1 (racemic) [Example 43, (±)-Trans-3-(5,6-dihydro-4H-pyrrolo[3,2,1-ij]quinolin-1yl)-4-(4-chlorophenyl)pyrrolidine-2,5-dione]
14.1	12.5			O=C1NC(=O)[C@@H](c2cn3c4c(cccc24)CCC3)[C@@H]1c1ccc(OC(F)(F)F)cc1 (racemic) [Example 44, (±)-Trans-3-(5,6-dihydro-4H-pyrrolo[3,2,1-ij]quinolin-1yl)-4-(4-trifluoromethoxyphenyl)pyrrolidine-2,5-dione]
42.7	27.6			O=C1NC(=O)[C@@H](c2cn3c4c(cccc24)CCC3)[C@@H]1c1ccsc1 (racemic) [Example 45, (±)-Trans-3-(5,6-dihydro-4H-pyrrolo[3,2,1-ij]quinolin-1yl)-4-(thiophen-3-yl)pyrrolidine-2,5-dione]
> 100	4.76			O=C1NC(=O)[C@@H](c2cn3c4c(cccc24)CCC3)[C@@H]1c1ccccc1F (racemic) [Example 46, (±)-Trans-3-(5,6-dihydro-4H-pyrrolo[3,2,1-ij]quinolin-1yl)-4-(2-fluorophenyl)pyrrolidine-2,5-dione]
14.8	8.39			O=C1NC(=O)[C@@H](c2cn3c4c(cccc24)CCC3)[C@@H]1c1ccc(Cl)cc1Cl (racemic) [Example 48, (±)-Trans-3-(5,6-dihydro-4H-pyrrolo[3,2,1-ij]quinolin-1yl)-4-(2,4-dichlorophenyl)pyrrolidine-2,5-dione]
		3.14	2.9	CC(N)C(=O)OCN1C(=O)[C@@H](c2c[nH]c3ccccc23)[C@H](c2cn3c4c(cccc24)CCC3)C1=O (mixture of isomers) [Example 57, (±)-trans-2-Amino-propionic acid-3-(5,6-dihydro-4H-pyrrolo[3,2,1-ij]quinolin-1-yl)-4-(1H-indol-3-yl)-2,5-dioxo-pyrrolidin-1-yl methyl ester]
		3.45	2.77	NCC(=O)OCN1C(=O)[C@@H](c2c[nH]c3ccccc23)[C@H](c2cn3c4c(cccc24)CCC3)C1=O (racemic) [Example 58, (±)-trans-2-Amino-acetic acid-3-(5,6-dihydro-4H-pyrrolo[3,2,1-ij]quinolin-1-yl)-4-(1H-indol-3-yl)-2,5-dioxo-pyrrolidin-1-yl methyl ester]
4.47	3.74			CN(C)CC(=O)OCN1C(=O)[C@@H](c2c[nH]c3ccccc23)[C@H](c2cn3c4c(cccc24)CCC3)C1=O (racemic) [Example 59, (±)-trans-2-dimethylamino-acetic acid-3-(5,6-dihydro-4H-pyrrolo[3,2,1-ij]quinolin-1-yl)-4-(1H-indol-3-yl)-2,5-dioxo-pyrrolidin-1-ylmethyl ester]
3.55	3.59			O=C(OCN1C(=O)[C@@H](c2c[nH]c3ccccc23)[C@H](c2cn3c4c(cccc24)CCC3)C1=O)c1ccncc1 (racemic) [Example 60, (±)-trans-Isonicotinic acid-3-(5,6-dihydro-4H-pyrrolo[3,2,1-ij]quinolin-1-yl)-4-(1H-indol-3-yl)-2,5-dioxo-pyrrolidin-1-ylmethyl ester]
97.5	48.7			O=C1NC(=O)[C@@H](c2cn3c4c(cccc24)CCC3)[C@@H]1c1ccc(OCc2ccccc2)cc1 (racemic) [Example 71, (±)-Trans-3-[4-(benzyloxy)phenyl]-4-(5,6-dihydro-4H-pyrrolo[3,2,1-ij]quinolin-1-yl)pyrrolidine-2,5-dione]
> 100	90.7			O=C1NC(=O)[C@@H](c2cn3c4c(cccc24)CN(C(=O)OCc2ccccc2)CC3)[C@@H]1c1c[nH]c2ccccc12 (racemic) [Example 74, (±)-Trans-7-[4-(1H-indol-3-yl)-2,5-dioxo-pyrrolidin-3-yl]-3,4-dihydro-1H-[1,4]diazepino[6,7,1-hi]indole-2-carboxylic acid benzyl ester]
> 100	> 100			O=C1NC(=O)[C@@H](c2cn3c4c(cccc24)CNCC3)[C@@H]1c1c[nH]c2ccccc12 (racemic) [Example 75, (±)-Trans-3-(1H-indol-3-yl)-4-(1,2,3,4-tetrahydro-[1,4]diazepino[6,7,1-hi]indol-7-yl)-pyrrolidine-2,5-dione]
> 100	22.6			O=C1[C@@H](c2c[nH]c3ccccc23)[C@H](c2cn3c4c(cccc24)CCC3)C(=O)N1COP(=O)(OCc1ccccc1)OCc1ccccc1 (relative stereo) [phosphoric acid dibenzyl ester trans-3-(5,6-dihydro-4H-pyrrolo[3,2,1-ij]quinolin-1-yl)-4-(1H-indol-3-yl)-2,5-dioxo-pyrrolidin-1-ylmethyl ester]
61.2	62.7			O=C1NC(=O)C(c2cn3c4c(cccc24)CCC3)=C1c1ccccc1C(F)(F)F [Example 6, 3-(5,6-dihydro-4H-pyrrolo[3,2,1-ij]quinolin-1-yl)-4(2-trifluoromethyl-phenyl)-pyrrole-2,5-dione]
> 100	> 100			O=C1NC(=O)C(c2cn3c4c(cccc24)CCC3)=C1c1cccs1 [Example 7, 3-(5,6-Dihydro-4H-pyrrolo[3,2,1-ij]quinolin-1-yl)-4-thiophen-2-yl-pyrrole-2,5-dione]
> 100	> 100			O=C1NC(=O)C(c2cn3c4c(cccc24)CCC3)=C1c1ccccn1 [Example 9, 3-(5,6-Dihydro-4H-pyrrolo[3,2,1-ij]quinolin-1-yl)-4-pyridin-2-yl-pyrrole-2,5-dione]
> 100	> 100			COc1ccc(C2=C(c3cn4c5c(cccc35)CCC4)C(=O)NC2=O)cc1 [Example 10, 3-(5,6-Dihydro-4H-pyrrolo[3,2,1-ij]quinolin-1-yl)-4(4-methoxy-phenyl)-pyrrole-2,5-dione]
> 100	> 100			O=C1NC(=O)C(c2cn3c4c(cccc24)CCC3)=C1c1ccc2c(c1)OCO2 [Example 11, 3-Benzo[1,3]dioxol-5-yl-4-(5,6-dihydro-4H-pyrrolo[3,2,1-ij]quinolin-1-yl)-pyrrole-2,5-dione]
81.6	66.5			O=C1NC(=O)C(c2cn3c4c(cccc24)CCC3)=C1c1ccccc1 [Example 12, 3-(5,6-Dihydro-4H-pyrrolo[3,2,1-ij]quinolin-1-yl)-4-phenyl-pyrrole-2,5-dione]
78.8	> 100			O=C1NC(=O)C(c2cn3c4c(cccc24)CCC3)=C1c1cc2ccccc2s1 [Example 13, 3-Benzo[b]thiophen-2-yl-4-(5,6-dihydro-4H-pyrrolo[3,2,1-ij]quinolin-1-yl)-pyrrole-2,5-dione]
98.2	71.6			O=C1NC(=O)C(c2cn3c4c(cccc24)CCC3)=C1c1cccc(Oc2ccccc2)c1 [Example 14, 3-(5,6-Dihydro-4H-pyrrolo[3,2,1-ij]quinolin-1-yl)-4-(3-phenoxy-phenyl)-pyrrole-2,5-dione]
43.6	75.8			O=C1NC(=O)C(c2cn3c4c(cccc24)CCC3)=C1c1cccc(Cl)c1 [Example 15, 3-(5,6-Dihydro-4H-pyrrolo[3,2,1-ij]quinolin-1-yl)-4-(3-chloro-phenyl)-pyrrole-2,5-dione]
